US6943191B1, “Disubstituted lavendustin A analogs and pharmaceutical composition comprising the analogs” (The United States of America as represented by the …, priority 1998, dated 2005)
Where two headings read alike, the source gives them in different places.

Assays:
K562 cells = assay: K562 cell culture and growth assay, 6 day MTT; assay type: cell-based, human; details: Homo sapiens, 144 h, K562, 6 days, 4 or more experiments
Experimental: This example describes the procedure used for cell culture and growth assays. Human leukemia, Philadelphia-chromosome-positive CML cell line K562 was obtained from ATCC (Rockville, Md.). Cells were cultured in RPMI medium containing 10% fetal calf serum, 2 mM glutamine, 100 units/ml of penicillin and 100 μg/ml streptomycin Cells (2×10^3 cells/well) were incubated with increasing concentrations of compounds of the present invention dissolved in DMSO in a final volume of 200 μl in 96-well plates. Control cells were incubated with medium containing identical concentrations of the DMSO solvent. Growth of K562 cells was quantitated after 6 days by ability of living cells to reduce the yellow dye 3-(4,5-dimethylthiazolyl)-2,5-diphenyltetrazolium bromide (MTT) to a blue formazan product. Further information concerning this procedure is provided by Mossman T., “Rapid Colorimetric Assay for Cellular Growth and Survival—Application to Proliferation and Cytotoxicity Assays,” J. Immunol. Methods 1983, 65:55-63, which is incorporated herein by reference.

p210^bcr-abl = biological target: T1, p210^bcr-abl (Homo sapiens, UniProt P00519); assay: Inhibition of in vitro auto-phosphorylation of p210^bcr-abl, immune-complex kinase assay; assay type: biochemical; details: immune complex kinase assay, 3 experiments, read-out: Enzyme Assays IC50 (μM) p210bcl-abl in vitro phosphorylation
T1 construct: immune complexes containing ^32P-labeled p210^bcr-abl were collected on protein Sepharose beads; BCR (N-terminal part of the breakpoint cluster region protein, natural fusion partner); endogenous in cells; host or cells: K562 cells (lysate, immunoprecipitated on Protein A-Sepharose); the other entry of the earlier key: BCR (P11274, Breakpoint cluster region protein)
Experimental: Inhibition of in vitro auto-phosphorylation of p210^bcr-abl in immune-complex kinase assays were conducted as follows. K562 cell line cells were washed twice in […]. The washed cells were lysed in PLC lysis buffer 150 mM HEPES (pH 7.5), 150 mM NaCl, 10% (v/v) glycerol, 1% (v/v) Triton X-100, 1.5 mM MgCl2, 1 mM EGTA. 10 μg/ml leupeptin, 10 μg/ml aprotinin, 1 mM sodium orthovanadate. 10 mM sodium pyrophosphate, 100 mM sodium fluoride and 1 mM phenylmethyl sulfonyl fluoride| Cell lysates were centrifuged at 100,000 g for 15 minutes and the supernatant collected. Protein concentrations of the clarified supernatants were determined by the Bradford Protein Assay, and the same quantity of protein was immunoprecipitated from control (vehicle-treated) and drug-treated cells. Cell lysates were incubated and gently rocked at 4° C. for 4 hours overnight with antibodies. Immune complexes were collected by incubation with Protein A-Sepharose beads (Pharmacia, Piscataway N.J.) and immune complexes (beads) were washed three times with HNTG buffer [20 mM HEPES (pH 7.5), 10% glycerol, 0.1% Triton X-100, 150 mM NaCl and 1 mM sodium orthovanadate] to remove unbound material. Bound proteins were boiled for 5 minutes in 2×SDS sample buffer (63 mM Tris-HCl, ph 6.8; 10% glycerol; 2% SDS; 0.0025% bromophenol blue: and […] 2 mercaptoethanol) prior to SDS-PAGE. Proteins were resolved on 4-20% gradient mini gels from Novex Experimental Technology (San Diego, Calif.).
After SDS-PAGE, proteins were electrophoretically transferred onto Immobilon polyvinylidene difluoride (PVDF) membranes (Millipore, Bedford, Mass.) at 250 mA for 4 hours at 4° C. using 2× Tris glycine transfer buffer (50 mM Tris, glycine), 20% methanol and 0.1% SDS. Residual binding sites on the membrane were blocked by incubation in TTS (20 mM Tris pH 7.4, 0.9% NaCl and 0.05% Tween 20) containing 3% BSA overnight at 4° C. or for 4 hours at room temperature. Blots were incubated for 1-1.5 hours with TTS containing 0.3% BSA with 1 μg/ml of mouse anti-P-Tyr, 2 μg/ml of mouse anti-Grb2 or 1 μg/ml of rabbit anti-She antibody. Blots were washed three times for 6 minutes each with TTS containing 0.3% BSA and probed with a 1:1000 dilution of rabbit anti-mouse antibody or directly with [^125I]Protein A (Amersham, Arlington Heights, Ill.) in blocking solutions. Proteins were visualized by autoradiography (exposed for 1-2 days at −70° C.).
The p210^bcr-abl, protein immunoprecipitates were washed twice with HTNG buffer Immunoprecipitates were washed once with 50 mM Tris (pH 7.0) and distributed to each reaction in 20 μl of 20 mM PIPES [piperazine-N,N′-bis(ethanesulfonic acid)] (pH 7.0)−20 mM MnCl2. Then, 10 μl of compounds made according to the present invention at desired concentrations from working stock solution prepared in 20 mM PIPEs (pH 7.0)−20 mM MnCl2 were added to each reaction tube. Reactions were initiated with the addition of 10 μl of [γ-^33P]ATP (10 μCi per sample, 3000 Ci/mmol; Amersham), incubated for 20 minutes at 30° C., stopped by addition of 10 μl of 5×SDS sample buffer, heated at 100° C. for 5 minutes, and analyzed on 4-20% SDS-PAGE and by autoradiography.
To assess the effect of drugs added in vitro on the state of p210^bcr-abl in the immune complexes, K562 cells were labeled with ^32P, lysed in PLC buffer and immune complexes containing ^32P-labeled p210^bcr-abl were collected on protein Sepharose beads and beads were washed four times with HNTG buffer. Immune complexes were divided into several tubes in 30 μl of PLC buffer in the presence of compounds made as described herein.

[1] = system: panel of approximately 60 different human tumor cell lines; assay: National Cancer Institute drug screen, mean-graph parameters; assay type: cell-based; details: mean over cell line panel, two days exposure; for GI50: Homo sapiens, 48 h, read-out: Tumor cell Mean log GI50 (converted)
Experimental: Compounds of the present invention also have been subjected to the drug screening procedure employed by the National Cancer Institute for the screening of drugs having possible anticancer utility. The screening procedure uses a diverse, disease-oriented panel consisting of approximately 60 different human tumor cell lines organized into disease-specific subpanels. The compounds of the present invention were tested over a range of concentrations for cytotoxic or growth-inhibitory effects against cell lines comprising the panel. The eight subpanels represented diverse histologies (leukemias, melanomas, and tumors of the lung, colon, kidney, breast, ovary, and brain).
Compounds of the present invention were tested over a period of two days. During this period the cells were continuously exposed to various concentrations of the compounds tested. The tests produced individual dose-responses, one for each cell line (i.e. one for each example), and the data were represented in dose-response curves. The data provided by these dose response curves were summarized using a mean-graph format.
To produce data for the mean-graph format, a compound concentration that produced a target level response was calculated for each cell line. Three different response parameters were evaluated. The first response parameter was the growth inhibition (“GI50”). GI50 is the concentration of compounds made according to the present invention that produced an apparent 50% decrease in the number of tumor cells relative to the appropriate control (not exposed to the compounds of the present invention) at the end of the incubation period.
The second response parameter was the total growth inhibition (“TGI”). TGI is the concentration at which the number of tumor cells remaining at the end of the incubation period substantially equal the number of tumor cells existing at the start of the incubation period.
The third response parameter was the lethal concentration (“LC50”) LC50 is the concentration of compounds made according to the present invention that caused an apparent 50 percent reduction in the number of tumor cells […] at the start of the incubation period.
In a typical GI50 mean graph, the relative position of the vertical reference line along the horizontal concentration axis was obtained by averaging the negative log10GI50 values for all the cell lines tested against the compound. Horizontal bars were then plotted for the individual negative log10GI50 values of each cell line relative to the vertical reference line. The GI50 graph thus provided a characteristic fingerprint for the compound, displaying the individual cell lines that are proportionately more sensitive than average (bars extending to the right of the reference line) or proportionately less sensitive than average (bars extending to the left of the reference line). The length of a bar was proportional to the difference between the log10GI50 value obtained with the particular cell line and the mean (represented by the vertical reference line).
Similar mean graphs were prepared for the TGI and LC50 response parameters.

[2] = Table 9, mean ± S.E., read-out: IC50 (μM) 6dMTT
[3] = Table 8, mean+S.E., read-out: IC50 (μM) 6 dMTT

T1 sequence (P00519 with tags, fused parts or gaps): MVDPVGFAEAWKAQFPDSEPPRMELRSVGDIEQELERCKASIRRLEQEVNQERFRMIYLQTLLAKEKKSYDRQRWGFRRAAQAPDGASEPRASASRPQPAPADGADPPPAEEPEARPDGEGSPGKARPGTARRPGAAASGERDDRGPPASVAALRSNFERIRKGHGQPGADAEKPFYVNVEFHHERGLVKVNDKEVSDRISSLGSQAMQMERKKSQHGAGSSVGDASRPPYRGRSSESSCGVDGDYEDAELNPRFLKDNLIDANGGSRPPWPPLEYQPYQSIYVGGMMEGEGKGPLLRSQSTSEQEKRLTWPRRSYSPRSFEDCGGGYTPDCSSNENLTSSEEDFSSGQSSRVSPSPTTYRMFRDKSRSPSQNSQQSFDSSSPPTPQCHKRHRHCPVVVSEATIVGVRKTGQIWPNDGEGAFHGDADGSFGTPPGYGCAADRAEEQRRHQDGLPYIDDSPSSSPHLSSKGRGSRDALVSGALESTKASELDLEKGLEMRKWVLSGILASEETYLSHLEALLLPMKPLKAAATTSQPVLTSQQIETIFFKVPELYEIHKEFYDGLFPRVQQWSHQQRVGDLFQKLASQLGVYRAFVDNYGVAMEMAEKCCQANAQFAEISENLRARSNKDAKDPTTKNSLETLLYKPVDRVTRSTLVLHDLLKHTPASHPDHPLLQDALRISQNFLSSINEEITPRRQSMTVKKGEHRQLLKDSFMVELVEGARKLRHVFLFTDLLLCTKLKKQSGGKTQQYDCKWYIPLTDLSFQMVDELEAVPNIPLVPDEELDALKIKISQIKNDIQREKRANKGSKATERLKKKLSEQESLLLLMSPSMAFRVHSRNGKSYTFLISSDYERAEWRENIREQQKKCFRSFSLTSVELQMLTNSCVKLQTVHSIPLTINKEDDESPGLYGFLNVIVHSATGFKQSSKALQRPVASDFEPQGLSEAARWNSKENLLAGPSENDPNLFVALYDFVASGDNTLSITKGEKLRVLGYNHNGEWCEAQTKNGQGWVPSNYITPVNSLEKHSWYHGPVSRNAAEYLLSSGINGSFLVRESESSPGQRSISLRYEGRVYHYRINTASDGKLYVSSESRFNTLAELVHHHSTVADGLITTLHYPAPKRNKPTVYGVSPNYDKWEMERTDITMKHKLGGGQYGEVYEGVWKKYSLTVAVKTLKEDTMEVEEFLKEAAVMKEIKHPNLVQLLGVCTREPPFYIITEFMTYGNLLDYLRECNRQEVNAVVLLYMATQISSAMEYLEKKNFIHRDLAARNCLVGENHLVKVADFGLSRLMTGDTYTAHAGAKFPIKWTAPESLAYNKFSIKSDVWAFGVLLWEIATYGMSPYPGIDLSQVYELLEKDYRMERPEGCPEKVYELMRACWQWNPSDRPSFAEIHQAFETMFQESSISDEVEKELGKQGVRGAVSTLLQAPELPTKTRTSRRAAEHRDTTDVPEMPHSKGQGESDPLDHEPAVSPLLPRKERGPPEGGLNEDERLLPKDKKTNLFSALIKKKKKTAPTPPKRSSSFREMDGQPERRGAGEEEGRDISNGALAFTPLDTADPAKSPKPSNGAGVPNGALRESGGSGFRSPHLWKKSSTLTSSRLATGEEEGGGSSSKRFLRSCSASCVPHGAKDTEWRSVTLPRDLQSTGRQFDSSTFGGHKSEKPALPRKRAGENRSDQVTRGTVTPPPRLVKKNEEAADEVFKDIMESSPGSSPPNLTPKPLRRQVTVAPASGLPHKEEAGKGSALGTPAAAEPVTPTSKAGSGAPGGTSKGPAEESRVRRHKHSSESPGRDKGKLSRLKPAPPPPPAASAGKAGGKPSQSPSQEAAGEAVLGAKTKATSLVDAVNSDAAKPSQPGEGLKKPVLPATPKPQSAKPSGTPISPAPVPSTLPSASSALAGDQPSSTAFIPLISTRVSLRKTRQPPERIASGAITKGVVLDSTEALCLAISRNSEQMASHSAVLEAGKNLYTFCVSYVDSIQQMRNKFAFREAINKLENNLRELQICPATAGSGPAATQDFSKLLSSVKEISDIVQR

Row | IC50 (K562 cells; [2]) [µM] | IC50 (p210^bcr-abl; Table 9, mean ± S.E.) [µM] | SMILES | GI50 ([1]; Table 9) [µM] | Tumor Cell Mean log TGI ([1]; Table 9) | IC50 (K562 cells; [3]) [µM] | IC50 (p210^bcr-abl; Table 8, mean+S.E.) [µM] | Tumor Cell Mean log GI50 ([1]; Table 8) | Tumor Cell Mean log TGI ([1]; Table 8)
1 | 24.8 ± 3.1 | 2.38 ± 0.45 | O=C1C=CC(=O)C(CNc2ccc(C(=O)OC34CC5CC(CC(C5)C3)C4)cc2)=C1Br [Compound 23, 4′-adamantylbenzoate-1′-N-2-bromo-p-quinone-3-methyl amine] | 7.59 | −4.60 | – | – | – | –
2 | 64.8 ± 1.22 | 2.68 ± 1.33 | CC(C)(C)OC(=O)c1ccc(NCC2=C(Br)C(=O)C=CC2=O)cc1 [Compound 24, 4′-t-butylbenzoate-1′-N-2-bromo-p-quinone-3-methyl amine] | 17.8 | −4.31 | – | – | – | –
3 | 17.5 ± 0.1 | 2.35 ± 0.41 | COC(=O)c1ccc(NCC2=C(Br)C(=O)C=CC2=O)cc1Cl [Compound 25, 3′-chloro-4′-methylbenzoate-1′-N-2-bromo-p-quinone-3-methyl amine] | 21.9 | −4.34 | – | – | – | –
4 | 27.7 ± 0.6 | 3.01 ± 1.75 | CC(C)OC(=O)c1ccc(NCC2=CC(=O)C=CC2=O)cc1Cl [Compound 26, 3′-chloro-4′-isopropylbenzoate-1′-N-p-quinone-2-methyl amine] | 9.55 | −4.41 | – | – | – | –
5 | – | – | O=C(O)c1cc(N(Cc2ccccc2O)Cc2cc(O)ccc2O)ccc1O [Lavendustin A, 5-[(2,5-dihydroxy-benzyl)-(2-hydroxy-benzyl)-amino]-2-hydroxy-benzoic acid] | – | – | 44.7 | 41.1 | −4.06 | −4.00
6 | – | – | COP(=O)(OC)c1ccc(NCc2cc(O)ccc2O)cc1 [O═P(OCH3)2 / H / H, 4′-phenylphosphonate-1-N-2,5-dihydroxybenzylamine] | – | – | 9.83 | 0.49 | −4.61 | −4.23
